Data: US5326788A, “Biological fluid purification system” (priority 1992, dated 1994)

Tests used:
[1] = system: Radiation Leukemia Virus; test: Inhibition of virus budding from infected AQR cells, reverse transcriptase assay; assay type: cell-based, Radiation Leukemia Virus in AQR (murine leukemia) cells; conditions: 1 hour incubation, supernatant after 24 hours; read-out: concentration completely inhibiting virus budding
Method: AQR (murine leukemia) cells producing Radiation Leukemia Virus (prepared as described in Meruelo, D., J. Exp. Med. 149: 898-909, 1979; and Bach, R. G. et al., J. Exp. Med. 160: 270-285, 1984) were incubated for 1 hour with various concentrations of synthetic hypericin (micrograms/ml shown in FIG. 3). The cells were then washed four times with phosphate buffer saline and incubated in fresh culture medium for 24 or 48 hours. Supernatants were then collected, pelleted (at 1000×g) for 15 minutes to remove whole cells and then repelleted at 100,000×g for 1 hour to collect virus particles. The second pellet was used for a reverse transcriptase assay, conducted as described in U.S. application Ser. No. 084,008 (Aug. 10, 1987) and 172,064 (Mar. 23, 1988).
The results of the reverse transcriptase assay are plotted in FIG. 3. […] Thus, the minimum incubation period that would destroy the ability of HIV-infected cells to participate in propagation of the HIV infection is likely to be much smaller than the 24 hours employed as the minimum waiting period in this assay.

[2] = Toxicity of hypericin administered to mice; assay type: in vivo
Method: In general, up to 100 mg and preferably between 1 mg and about 10 mg of the antiviral compounds may be employed to completely eliminate the infectivity properties of human retroviruses such as HIV in one unit of whole blood. Intravenous transfusion or administration of blood containing this level of hypericin for example should pose no serious toxicity or tolerance threat to human recipients of such transfused blood. […] This correlates with a dose of approximately 25 mg i.v. in man, or twenty times the dose that would be received from a transfusion of 1 unit of whole blood containing 2.5 micrograms/ml hypericin. In addition, i.e. administration of 1.2 mg of hypericin in phosphate buffered saline (PBS) containing 10% ethanol to a mouse was not lethal. (Naturally, it is preferred to use the minimum amount of the antiviral compounds that is effective to terminate the infectivity of the target virus in a given biological fluid. The minimum effective amount required for abolishing infectivity of a particular viral species suspected to be present in a biological fluid can be easily determined through the exercise of routine experimentation.)

Question: For `Cc1cc(O)c2c(=O)c3c(O)cc(O)c4c5c(O)cc(O)c6c(=O)c7c(O)cc(C)c8c1c2c(c34)c(c78)c65` [hypericin], which IC100 [1] is on record?
Answer: 10 µg/mL

Question: And the “corresponding dose in man” value ([2]; i.v., extrapolated from 100 micrograms per mouse)?
Answer: approximately 25 mg

Question: And the toxic side effects ([2]; mice, intravenous, 100 micrograms per mouse)?
Answer: not exhibited any toxic side effects

Question: What about the lethality ([2]; mouse, 1.2 mg in PBS containing 10% ethanol) of the same compound?
Answer: not lethal
